Reference: paper PMC5107945, “Abscinazole-E3M, a practical inhibitor of abscisic acid 8′-hydroxylase for improving drought tolerance” (Scientific Reports, 2016)

How the values were obtained:
[1] = test system: MAPKKK18 promoter GUS reporter; experiment: ABA-responsive MAPKKK18::GUS reporter analysis; type: in vivo, Arabidopsis; details: co-treatment with ABA; 5 or 25 μM, 6 h; Fig. S6
Experimental: MAPKKK18::GUS reporter-containing transgenic Arabidopsis[32] were grown for 6 d on agar plates containing 1/2 MS and 0.5% sucrose. Seedlings were incubated in 1/2 MS solutions containing 0.5% sucrose with chemicals for 6 h. GUS activities were detected using a reaction buffer containing 50 mM sodium phosphate buffer, 2.5 mM potassium ferrocyanide, 2.5 mM potassium ferricyanide and 1 mM X-gluc. The GUS enzyme reaction was performed at 30 °C for ~12 h. The reaction was stopped by adding 70% EtOH. Tissue-specific GUS staining was observed by microscope after bleaching the chlorophyll pigment.
Supplementary Figure 6. (−)-Abz-E3M enhanced the ABA-inducible MAPKKK18 expression level. Six-day-old seedlings of MAPKKK18::GUS reporter-containing transgenic plants were incubated in solutions containing either 5 or 25 µM of (−)-Abz-E3M

[2] = test system: endogenous ABA level; experiment: Endogenous ABA levels in Arabidopsis; type: in vivo; details: Arabidopsis four-week-old plants, 50 μM, overnight
Experimental: The effects of (-)-Abz-[…] were also determined relative to stomatal apertures. Arabidopsis grown in soil pots underwent moderate drought stress under the optimal growth conditions of 22 °C and 60% relative humidity. Under these growth conditions, the leaf surface temperature of the mock-treated controls was 19.5 °C, which was lower than the surrounding atmospheric temperature because of transpirational water loss (Fig. 6a,b)[30]. […] Finally, we examined the effects of (-)-Abz-[…] on drought tolerance under more practical conditions. Three-week-old Arabidopsis were sprayed with an aqueous solution containing 50 μM (-)-Abz-[…]. Water was not supplied for 12 days, and then the plants were rehydrated. […] We also tested the effects of (-)-Abz-[…] on a monocot crop, maize, to evaluate whether (-)-Abz-[…] affected stomatal movement and enhanced ABA response across plant species. […] Thus, the effects of (-)-Abz-[…] were not restricted to the model plant Arabidopsis. Figure 6 Effects of (-)-Abz-[…] on Arabidopsis drought tolerance. (a,b) Three-week-old plants were treated with 50 μM of (-)-Abz-[…] and incubated overnight at 22 °C with 60% relative humidity. Thermal images of plants were obtained using a thermal imaging camera ([…], Nippon Avionics Co., Ltd.), and the average temperatures on leaf surfaces were determined with NS9200 software (n = 5, error bars represent s.d.). […]

[3] = test system: Arabidopsis seed germination; experiment: Arabidopsis seed germination assay; type: in vivo, Arabidopsis (Columbia accession)
Experimental: Figure 3 Effects of (−)-Abz-T compounds on Arabidopsis seed germination compared with that of (−)-Abz-E2B. Seed germination rates in the presence of 0.1 μM ABA and the indicated concentrations of azole inhibitors at a time when the germination rate of plants treated only with ABA was 80% (n = 3; error bars represent s.d.). Compound 6 is also referred to as Abz-E3M.
For the Arabidopsis seed germination assay, 25 to 40 seeds (Columbia accession) were sterilised successively by soaking in 70% EtOH for 30 min and reagent-grade EtOH for 1 min. They were then soaked in distilled water and incubated in the darkness at 5 °C for 3 d. The stratified seeds were then soaked in 100 μL of a test medium liquid agar in 96-well plates and allowed to germinate under continuous illumination at 22 or 30 °C. In these assays, we used the classic definition of radical emergence for seed germination. All of the assays were conducted at least three times.

abscinazole-E3M [(−)-6]
ABA-inducible GUS staining (MAPKKK18::GUS) [1]: enhanced the ABA-inducible GUS staining | Endogenous ABA content [2]: significantly increase the ABA content | Effect on Arabidopsis seed germination under high temperature conditions ([3]; 30 °C, thermoinhibition, Fig. S3): inhibited Arabidopsis seed germination | Potency in enhancing ABA's effects on seed germination relative to (−)-Abz-E2B ([3]; co-treatment with ABA (0.1 μM)): 10 fold | Effect on ABA's inhibition of Arabidopsis seed germination ([3]; in the presence of 0.1 μM ABA, Fig. 3): enhanced the effects of ABA
